Reference: US6670334B2, “Method and compositions for treating the inflammatory response” (University of Virginia Patent Foundation, priority 2001, dated 2003)
pEC50, pKi: −log10 of the molar value. Blank lines part the entries; values can stand above or below the compound they belong to.

Key:
PMN = test: TNF-stimulated PMN adherence to a fibrinogen-coated surface; type: cell-based, human
Procedure: PMN adherence to fibrinogen was measured as follows as adapted from Hanlon, J. Leukocyte Biol., 50, 43 (1991). Twenty-four well flat-bottomed tissue culture plates were incubated (37° C.) overnight with 0.5 ml of fibrinogen (5 mg/ml) dissolved in 1.5% NaHCO3. The plates were emptied and each well washed 2× with 1 ml of normal saline. The wells were then filled with 1 ml of HBSS-0.1% human serum albumin containing PMN (1×10^6/ml) with and without rhTNFα (1 U/ml), adenosine deaminase (ADA) (1 U/ML), WRC-0474[SHA 211] (10 nM), CGS21680 (30 nM), adenosine (100 nM) and rolipram (100 nM). The plates were incubated for 90 minutes at 37° C. in 5% CO2. Following incubation the tissue culture wells were washed free of non-adherent cells with normal saline. The adherent monolayer of PMN was lysed with 0.1% triton-X, the amount of lactic dehydrogenase (LDH) released from the monolayer assayed (LDH kit, Sigma Co., St. Louis, Mo.), and compared to a standard curve relating the LDH content to PMN numbers.

human adherent monocytes = test: Production of TNFα by purified human adherent monocytes (endotoxin-stimulated, ELISA); type: cell-based; conditions: ZM241385 50 nM; p=0.020; FIG. 7B
Procedure: Production of TNFα by purified human adherent monocytes. A monocyte rich monolayer (>95% monocytes) was prepared by incubating 1 ml of the mononuclear leukocyte fraction (5×10^5/ml) from a Ficoll-Hypaque separation in wells of a 24 well tissue culture plate (1 hr; 37° C.; 5% CO2). […] The samples were incubated for 4 hr (37° C.; 5% CO2) and the supernatants harvested. Any suspended cells were removed by centrifugation and the cell-free samples frozen (−70° C.). TNFα was assayed in the cell-free supernatants by an ELISA kit (Cistron Biotechnology, Pine Brook, N.J.).

[1] = test system: Adult wistar rats with bacteria meningitis (BM); test: Rat model of inflammation (bacteria meningitis): CSF WBC pleocytosis and blood-brain barrier permeability; type: in vivo
Procedure: Effects of WRC-0470 and rolipram on the extravasation of white blood cells in a rat model of inflammation. Adult wistar rats (approximately 200 g) were anesthetized with intermuscular injections of ketamine and xylazine. Bacteria meningitis (BM) was introduced via intracistemal inoculation of either E. coli strain 026:B6LPS (200 ng), cytokines (IL-1 and TNFα or LPS plus cytokines). The animals were then infused with rolipram and/or WRC-1470 over the duration of the experiment using a Harvard pump. CSF (cerebrospinal fluid) and blood was then sampled at 4 h post-inoculation and alterations in BBBP (blood-brain barrier permeability) and WBC (white blood cell) counts were determined. CSF and WBC concentrations were determined with standard hemacytometer methods. For assessment of % BBBP, rats were given an intravenous injection of 5 μCi 125I-labeled bovine serum albumin concomitant with intracistemal inoculation. Equal samples of CSF and blood were read simultaneously in a gamma counter and after subtraction of background radioactivity, % BBBP was calculated by the following formula: % BBBP=(cpm CSF/cpm blood)×100. All statistical tests were performed using Instat biostatistical software to compare the post-inoculation samples of experimental rats with the control rats. The statistical tests used to generate p-values were Student's t-test and ANOVA.

[2] = test system: Human PMN adherent to fibrinogen; test: TNFα-stimulated superoxide release of PMN adherent to a fibrinogen coated surface; type: cell-based; conditions: rolipram 100 nM; WRC-0474[SHA 211] 30-300 nM, other agonists 300 nM; p<0.05; FIG. 5
human neutrophils = test: Neutrophil oxidative activity (luminol-enhanced chemiluminescence), TNF/f-met-leu-phe stimulation; type: cell-based; conditions: TNF-alpha 10 U/ml primed, fMLP 1 μM stimulated, ADA 1 Units/ml, FIG. 13, read-out: EC50 for decreasing neutrophil oxidative activity
From the text: A2A agonists blocking of neutrophil oxidative activity. […] This was detected by luminol-enhanced chemiluminescence. The EC50's were lower for the ester when compared to its acid.
A one-step Ficoll-Hypaque separation procedure (Ferrante and Thong, 1980) was used to purify human neutrophils from normal heparinized (10 Units/ml) of venous blood yielding approximately 98% neutrophils; having about >95% viable as determined with trypan blue containing <50 pg/ml of endotoxin. Following separation, the neutrophils were washed with Hank's balanced salt solution (HBSS) three times.
Neutrophil oxidative activity (luminol-enhanced chemiluminescence): The activated neutrophils emit light from unstable high-energy oxygen species produced by the plasma membrane associated NADPH oxidase and metabolized by cytoplasmic and granule enzymes. The light signal from activated neutrophils can be enhanced by the addition of luminol to the samples. […]
The purified neutrophils (1×10^6/ml) were incubated in HBSS containing 0.1% HSA (1 ml), plus adenosine deaminase (1 Units/ml), ±JR2171 or ±CGS21680, and with TNF-alpha (10 U/ml) for 30 min at 37° C. in a shaking water bath. Then luminol ([…]) enhanced f-met-leu-phe (1 μM)-stimulated chemiluminescence was read with a Chronolog Photometer (Chronolog Corp., Havertown, Pa.) at 37° C. for 8 min. […]

[3] = target: recombinant human A2A adenosine receptors (Homo sapiens, UniProt P29274); test: Radioligand binding assay, competition for 125I-ZM241385
Sequence of recombinant human A2A adenosine receptors (P29274 whole entry): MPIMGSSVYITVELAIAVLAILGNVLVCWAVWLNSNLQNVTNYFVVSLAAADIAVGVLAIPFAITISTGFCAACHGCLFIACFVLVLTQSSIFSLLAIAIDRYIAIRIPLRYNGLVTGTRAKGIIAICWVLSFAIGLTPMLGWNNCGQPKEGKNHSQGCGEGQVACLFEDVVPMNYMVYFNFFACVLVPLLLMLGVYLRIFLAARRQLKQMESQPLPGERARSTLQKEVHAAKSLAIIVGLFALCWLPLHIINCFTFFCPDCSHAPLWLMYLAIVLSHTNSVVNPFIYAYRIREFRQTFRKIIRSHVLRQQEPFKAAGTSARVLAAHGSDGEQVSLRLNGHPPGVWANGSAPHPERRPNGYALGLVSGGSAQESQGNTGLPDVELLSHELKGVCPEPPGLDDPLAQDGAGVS

SMILES: Nc1ncnc2c1ncn2[C@@H]1O[C@H](CO)[C@@H](O)[C@H]1O [adenosine]
- TNF-stimulated PMN adherence, % adhered (PMN; 100 nM, p=0.009 compared to TNF in the presence of ADA): 28%

SMILES: Nc1nc(NCCc2ccc(O)cc2)nc2nc(-c3ccco3)nn12 [ZM241385, 4-(2-[7-amino-2-(2-furyl)[1,2,4]-triazolo[2,3a]-[1,3,5]trazinyl-amino]ethyl)-phenol]
- antagonism of the effect of WRC-0470 (300 nM) combined with rolipram (300 nM) on TNFα release from monocytes (human adherent monocytes): significantly inhibited the effect

SMILES: COc1ccc(C2CNC(=O)C2)cc1OC1CCCC1 (stereo not drawn) [Rolipram, 4-(3-cyclopentyloxy-4-methoxyphenyl)-2-pyrrolidone]
- alterations of BBBP ([1]; 0.002 μg/kg/hr): no significant effect
- inhibition of CSF pleocytosis ([1]; 0.01 μg/kg/hr, p<0.05, FIG. 10): 99%
- alterations of BBBP ([1]; 0.01 or 0.005 μg/kg/hr, p<0.05): significant inhibition
- WBC migrated into the sub-arachnoid space (CSF WBC) ([1]; rolipram alone (0.001 μg/kg/hr), p<0.050): 1,670±1,273 WBC/μl

SMILES: Cc1ccc(CCOc2nc(N)c3ncn([C@@H]4O[C@H](CO)[C@@H](O)[C@H]4O)c3n2)cc1 [WRC-0090]
- TNFα-stimulated adherent PMN superoxide release, agonist combined with rolipram [2]: synergistically decreased superoxide release

- pEC50 (human neutrophils): 9.43
- pKi [3]: 7.35
SMILES: CCNC(=O)C1OC(n2cnc3c(N)nc(NCCc4ccc(CCC(=O)OC)cc4)nc32)C(O)C1O (stereo not drawn) [JR2171, 3-(4-{2-[6-Amino-9-(5-ethylcarbamoyl-3,4-dihydroxy-tetrahydro-furan-2-yl)9H-purin-2-ylamino]-ethyl}-phenyl)-propionic acid methyl ester]

SMILES: Nc1nc(OCCc2ccc3ccccc3c2)nc2c1ncn2[C@@H]1O[C@H](CO)[C@@H](O)[C@H]1O [WRC-0018]
- TNFα-stimulated adherent PMN superoxide release, agonist combined with rolipram [2]: synergistically decreased superoxide release

- pEC50 (human neutrophils): 8.68
SMILES: CCNC(=O)C1OC(n2cnc3c(N)nc(NCCc4ccc(CCC(=O)O)cc4)nc32)C(O)C1O (stereo not drawn) [CGS21680, 3-(4-{2-[6-amino-9-(5-ethylcarbamoyl-3,4-dihydroxy-tetrahydro-furan-2-yl)-9H-purin-2-ylamino]-ethyl}-phenyl)-propionic acid]
- TNF-stimulated PMN adherence, % adhered (PMN; 30 nM, in the presence of ADA, TNF+ADA control 38%, p=0.004): 30%
